According to article PMC11212260, “Next-generation neuropeptide Y receptor small-molecule agonists inhibit mosquito-biting behavior” (Parasites & Vectors, 2024):
Values joined by “and” are separate entries in the source; they are usually repeats but may differ in a detail not shown here. Equal entries are not always repeated. Where two headings read alike, the source gives them in different places.

Legend:
Ae. aegypti NPYLR7 = Ae. aegypti NPYLR7 (Aedes aegypti, UniProt U5N1H5); assay: In vitro calcium (GCaMP6s) FLIPR assay in HEK293T cells transfected with NPYLR7; assay type: cell-based
Chain of Ae. aegypti NPYLR7 (U5N1H5 entry or part of it): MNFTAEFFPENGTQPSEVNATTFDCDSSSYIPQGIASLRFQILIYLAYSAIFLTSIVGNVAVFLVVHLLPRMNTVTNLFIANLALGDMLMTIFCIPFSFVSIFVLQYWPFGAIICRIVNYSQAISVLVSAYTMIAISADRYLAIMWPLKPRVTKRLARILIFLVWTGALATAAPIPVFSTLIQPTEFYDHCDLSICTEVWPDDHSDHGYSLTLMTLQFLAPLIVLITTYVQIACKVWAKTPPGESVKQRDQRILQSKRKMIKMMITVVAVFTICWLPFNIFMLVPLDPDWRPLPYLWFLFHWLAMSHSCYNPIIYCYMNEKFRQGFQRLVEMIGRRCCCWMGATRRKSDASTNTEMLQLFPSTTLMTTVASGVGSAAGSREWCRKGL
Procedure, shortened: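 HEK293T cells transiently co-transfected with GCaMP6s, mouse Gqα15 and NPYLR7; FLIPR imaging every second for 5 min, compound (0–100 μM) added after 30 s baseline in HBSS + 20 mM HEPES. Response normalized to buffer (0%) and 10 μM FMRFa3 (100%); relative EC50 by four-parameter fit, replicates averaged.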

[1] = system: Aedes aegypti (Orlando strain) females; assay: Host-seeking screening assay (miniport olfactometer); assay type: in vivo; settings: fed 1 μM in saline, tested 48 h post-meal
Procedure, shortened: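 Fasted Orlando-strain females fed saline meals (400 mM NaHCO3) with 1 mM ATP and test compound at 1 μM final via warmed membrane feeders; lethality counted 24 h post-meal. At 48 h, attraction to human-scented stocking plus 5% CO2 scored over 5 min, normalized to matched saline-fed controls.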

[2] = system: Aedes aegypti (Orlando strain) females; assay: Glytube feeding: females feeding to repletion and weight per female (meal palatability); assay type: in vivo; settings: Supplemental Figure 1 Panel A; compounds of Fig 3; individual replicate values
Description: Groups of 60–150 females were placed in bucket cages with a diameter of 21.6 cm and height of 16.5 cm (VWR) and fasted with access to water for 24 h prior to feeding. Meals were delivered to females via Glytube membrane feeders as described previously. Meals consisted of 1.5 ml sheep blood (HemoStat Laboratories), saline (400 mM NaHCO3 + dih2O), or saline and test compound. Lyophilized compounds were stored at room temperature until use. High-concentration stocks (30 mM in 100% dimethyl sulfoxide [DMSO]) (Sigma-Aldrich) were stored at −20 °C and diluted in saline immediately prior to feeding. Once prepared, meals and glycerol heating elements were warmed in a 42 °C water bath for 15 min to provide warmth to attract mosquitos to feed. ATP (1 mM final concentration) and test compounds (1 μM final concentration) were added prior to placing the meal on top of the mesh on the cage containing female mosquitos. Females were allowed 15–20 min to feed to repletion. Abdominal engorgement was scored by eye and confirmed by weighing females to ensure full feeding (Data S1). […] Females were returned to their original cage with a diH2O wick for 48 h prior to behavioral testing. The lethality of each compound was measured by counting the number of dead females in each cage 24 h post-meal.
Supplementary file 13071_2024_6347_MOESM1_ESM.png: Supplementary Material 1: Figure 1. […] (A) Percent of females feeding to repletion and (B) weight per female after feeding on the indicated meal used for testing in Miniport olfactometer experiments in Figure 3B. (C) Percent of females feeding to repletion and (D) weight per female after feeding on the indicated meal used for testing in live host assays in Figure 4. Data are shown as mean with standard deviation. n = 2–22 replicate cages, 60–150 females/cage. Females were weighed in groups of five to ensure reliable readings. Kruskal–Wallis with Dunn’s multiple comparisons to saline-fed group, ns P > 0.01, * P < 0.01, *** P < 0.0001. (PNG 321 KB)

Compound: CCCOc1ccc2c(C)nc(NC(=N)N)nc2c1 [TDI-014178]
- EC50 (Ae. aegypti NPYLR7; EC50 of the individual assay date/plate (assay date), read-out: EC50): 2.25 µM
- EC50 (Ae. aegypti NPYLR7; Figure 1E Summary, third list (n = 39), read-out: Reported Metric (Summary list)): 2.25 µM
- activation at 1.2346 µM (Ae. aegypti NPYLR7; HEK-293T, 1.2346 uM, single replicate, normalised response): 42.7%
- activation at 3.7037 µM (Ae. aegypti NPYLR7; HEK-293T, 3.7037 uM, single replicate, normalised response): 66.7%
- activation at 11.1111 µM (Ae. aegypti NPYLR7; HEK-293T, 11.1111 uM, single replicate, normalised response): 86.6%
- activation at 33.3333 µM (Ae. aegypti NPYLR7; HEK-293T, 33.3333 uM, single replicate, normalised response): 96.4%
- activation at 100 µM (Ae. aegypti NPYLR7; HEK-293T, 100 uM, single replicate of the dose-response curve, normalised response): 100%
- EC50 (Ae. aegypti NPYLR7; relative EC50, percent effect relative to 10 μM FMRFa3, read-out: EC50): 2.25 µM
- EC50 (Ae. aegypti NPYLR7; sheet Figure 3C, unit inferred, read-out: EC50): 2.25 µM
- EC50 (Ae. aegypti NPYLR7; summary EC50 per compound (mean over assay dates), the unit is taken from the neighbouring EC50 (uM) column, read-out: Reported Metric): 2.25 µM
- Host-seeking relative to saline (test compound % host-seeking/average matched saline % host-seeking) ([1]; individual replicates, listed as TDI-04178): 0.93 and 1
- Attraction (relative to saline) ([1]; per-compound value of Fig. 3C): 0.93
- % feeding (females feeding to repletion) [2]: 49.19%
